Legend:
Test in all cases: relative viability (nuclei count vs DMSO), 5 days (fraction); higher = more cells survive
ALW-II-49-7 + Navitoclax = compound: Cc1ccc(C(=O)Nc2cccc(C(F)(F)F)c2)cc1Nc1cncc(C(N)=O)c1 [ALW-II-49-7] + CC1(C)CCC(c2ccc(Cl)cc2)=C(CN2CCN(c3ccc(C(=O)NS(=O)(=O)c4ccc(N[C@H](CCN5CCOCC5)CSc5ccccc5)c(S(=O)(=O)C(F)(F)F)c4)cc3)CC2)C1 [Navitoclax] (partner 0.5 µM)
Procedure, shortened: (§1)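 Cells from lung cancer lines were seeded into 1536-well plates and, one day later, dosed by pin tool. Treatments were either a single drug or a fixed dose of an anchor drug with five library-drug doses (not always all listed) in √10 steps. After 5 days, nuclei were stained in a one-step fixation (final 0.05% Triton X-100, 1% formaldehyde, 1 ug/ml Hoechst) and counted on 4× images, and relative viability is the treated-to-vehicle nuclei ratio, as the median of duplicate plates.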

ALW-II-49-7 + Alpelisib = compound: Cc1ccc(C(=O)Nc2cccc(C(F)(F)F)c2)cc1Nc1cncc(C(N)=O)c1 [ALW-II-49-7] + Cc1nc(NC(=O)N2CCC[C@H]2C(N)=O)sc1-c1ccnc(C(C)(C)C(F)(F)F)c1 [Alpelisib] (partner 2 µM)
Procedure, shortened: as §1

Dasatinib + Luminespib = compound: Cc1nc(Nc2ncc(C(=O)Nc3c(C)cccc3Cl)s2)cc(N2CCN(CCO)CC2)n1 [Dasatinib] + CCNC(=O)c1noc(-c2cc(C(C)C)c(O)cc2O)c1-c1ccc(CN2CCOCC2)cc1 [Luminespib] (partner 0.01 µM)
Procedure, shortened: as §1

Dasatinib + Vorinostat = compound: Cc1nc(Nc2ncc(C(=O)Nc3c(C)cccc3Cl)s2)cc(N2CCN(CCO)CC2)n1 [Dasatinib] + O=C(CCCCCCC(=O)Nc1ccccc1)NO [Vorinostat] (partner 1 µM)
Procedure, shortened: as §1

Row | Cell Line | relative viability (ALW-II-49-7 + Navitoclax; first compound 0.08 µM) | relative viability (ALW-II-49-7 + Navitoclax; first compound 0.253 µM) | relative viability (ALW-II-49-7 + Navitoclax; first compound 0.8 µM) | relative viability (ALW-II-49-7 + Navitoclax; first compound 2.53 µM) | relative viability (ALW-II-49-7 + Navitoclax; first compound 8 µM) | relative viability (ALW-II-49-7 + Alpelisib; first compound 0.08 µM) | relative viability (ALW-II-49-7 + Alpelisib; first compound 0.253 µM) | relative viability (ALW-II-49-7 + Alpelisib; first compound 0.8 µM) | relative viability (ALW-II-49-7 + Alpelisib; first compound 2.53 µM) | relative viability (ALW-II-49-7 + Alpelisib; first compound 8 µM) | relative viability (Dasatinib + Luminespib; first compound 0.005 µM) | relative viability (Dasatinib + Luminespib; first compound 0.01581 µM) | relative viability (Dasatinib + Luminespib; first compound 0.05 µM) | relative viability (Dasatinib + Luminespib; first compound 0.1581 µM) | relative viability (Dasatinib + Luminespib; first compound 0.5 µM) | relative viability (Dasatinib + Vorinostat; first compound 0.005 µM) | relative viability (Dasatinib + Vorinostat; first compound 0.01581 µM) | relative viability (Dasatinib + Vorinostat; first compound 0.05 µM) | relative viability (Dasatinib + Vorinostat; first compound 0.1581 µM) | relative viability (Dasatinib + Vorinostat; first compound 0.5 µM)
1 | PC-3 [JPC-3] | 0.693 | 0.891 | 0.757 | 0.816 | 0.82 | 1.02 | 0.989 | 0.987 | 1.09 | 1.02 | 0.741 | 0.646 | 0.76 | 0.576 | 0.389 | 0.86 | 0.953 | 0.787 | 0.522 | 0.475
2 | EKVX | 0.942 | 0.888 | 0.832 | 0.502 | 1.08 | 0.929 | 0.78 | 0.868 | 0.685 | 0.802 | 0.797 | 0.665 | 0.808 | 0.637 | 0.207 | 0.725 | 0.642 | 0.6 | 0.355 | 0.267
3 | NCI-H460 | 1.17 | 1.08 | 1.11 | 1.25 | 1.09 | 0.513 | 0.542 | 0.323 | 0.453 | 0.395 | 0.0311 | 0.031 | 0.0288 | 0.02 | 0.0207 | 0.659 | 0.619 | 0.877 | 0.475 | 0.315
4 | NCI-H2170 | 0.701 | 0.568 | 0.569 | 0.655 | 0.592 | 0.723 | 0.762 | 0.751 | 0.867 | 0.793 | 0.497 | 0.482 | 0.597 | 0.315 | 0.273 | 0.797 | 0.72 | 0.743 | 0.467 | 0.334

Reference: the supplement of paper PMC10307832
